Data set [1] concerns HCT-116. Kind of data set: Growth inhibition of human HCT116 cells after 72 hrs by MTS assay. It counts as functional, cell-based. The following applies: HCT-116, 72 h. In general terms: Formazan colour is commonly taken as a measure of viable cells.
Data set [2] deals with T1, Kinesin-like protein KIF11 (Homo sapiens, UniProt P52732).
T1 sequence (P52732 whole entry): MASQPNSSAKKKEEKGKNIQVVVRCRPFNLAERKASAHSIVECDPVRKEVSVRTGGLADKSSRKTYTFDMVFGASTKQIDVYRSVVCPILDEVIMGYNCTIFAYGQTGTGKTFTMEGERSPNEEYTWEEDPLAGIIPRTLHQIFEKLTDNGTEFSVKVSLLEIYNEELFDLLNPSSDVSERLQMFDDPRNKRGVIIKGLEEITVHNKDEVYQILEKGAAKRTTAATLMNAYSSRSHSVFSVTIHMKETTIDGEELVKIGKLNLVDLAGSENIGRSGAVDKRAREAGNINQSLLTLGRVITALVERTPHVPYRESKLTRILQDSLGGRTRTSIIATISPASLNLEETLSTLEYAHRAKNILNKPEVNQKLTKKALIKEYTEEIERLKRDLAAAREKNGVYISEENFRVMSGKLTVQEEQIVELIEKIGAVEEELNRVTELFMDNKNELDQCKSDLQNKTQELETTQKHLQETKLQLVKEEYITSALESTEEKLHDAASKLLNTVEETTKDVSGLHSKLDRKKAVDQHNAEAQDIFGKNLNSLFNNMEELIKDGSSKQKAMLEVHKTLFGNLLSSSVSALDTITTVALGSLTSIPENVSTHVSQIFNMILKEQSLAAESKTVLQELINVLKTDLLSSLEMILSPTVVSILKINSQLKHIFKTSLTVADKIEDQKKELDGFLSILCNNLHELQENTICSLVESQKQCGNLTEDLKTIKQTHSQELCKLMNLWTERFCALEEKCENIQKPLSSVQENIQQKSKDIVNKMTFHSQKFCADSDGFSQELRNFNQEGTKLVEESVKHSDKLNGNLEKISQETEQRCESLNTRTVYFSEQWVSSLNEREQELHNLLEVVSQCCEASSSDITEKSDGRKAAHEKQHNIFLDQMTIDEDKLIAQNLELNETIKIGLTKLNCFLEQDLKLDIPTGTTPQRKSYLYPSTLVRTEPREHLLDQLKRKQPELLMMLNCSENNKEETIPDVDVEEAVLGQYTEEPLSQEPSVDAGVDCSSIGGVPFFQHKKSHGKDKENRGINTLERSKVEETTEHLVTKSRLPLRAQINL
Nature of the data set: Inhibition of His-tagged KSP motor domain (1 to 369) (unknown origin) assessed as inhibition of microtubule-stimulated KSP ATPase activity preincuabted for 30 mins followed by ATP addition measured after 15 mins by Kinase-Glo assay. For orientation: Kinase-Glo reads ATP consumption through a luciferase reaction.

Data set [3] deals with Mus musculus. Nature of the data set: Toxicity in athymic nude BALB/cAJcL mouse xenografted with HCT116 cells assessed as mortality at 25 mg/kg, iv administered on days 1,3,5,8,10 and 12. It counts as organism-based, HCT-116. As to conditions: in vivo.
Data set [4] has as its system Mus musculus. Nature of the data set: Toxicity in athymic nude BALB/cAJcL mouse xenografted with HCT116 cells assessed as body weight loss at 25 mg/kg, iv administered on days 1,3,5,8,10 and 12 relative to vehicle-treated control. As to conditions: in vivo. It counts as organism-based, HCT-116.
The test system of data set [5] is HCT-116. Nature of the data set: Antitumor activity against human HCT116 cells xenografted in athymic nude BALB/cAJcL mouse assessed as inhibition of tumor growth at 25 mg/kg, iv administered on days 1,3,5,8,10 and 12 measured on day 15. The format is functional. On the technique in general: A xenograft is tissue or cells of one species grown in another, often human tumour cells in immunodeficient mice.

The target of data set [6] is T2, Kinesin-like protein KIF11 (Homo sapiens) (UniProt P52732).
T2 sequence (whole entry): T1 sequence (P52732 whole entry)
Description: Binding affinity to KSP motor domain (unknown origin) assessed as change in melting temperature at 100 uM by differential scanning fluorimetry in presence of 1 mM ATP

Data set [7] concerns Mus musculus. Kind of data set: Toxicity in athymic nude BALB/cAJcL mouse xenografted with HCT116 cells assessed as mortality at 75 mg/kg, iv administered on days 1,3,5,8,10 and 12. The format is organism-based, HCT-116. As to conditions: in vivo.
Data set [8] deals with HCT-116. Kind of data set: Antitumor activity against human HCT116 cells xenografted in athymic nude BALB/cAJcL mouse assessed as inhibition of tumor growth at 150 mg/kg, iv administered on days 1,3,5,8,10 and 12 measured on day 15. The format is functional.
The test system of data set [9] is HCT-116. Kind of data set: Antitumor activity against human HCT116 cells xenografted in iv dosed athymic nude BALB/cAJcL mouse assessed as inhibition of tumor growth drug administered on days 1,3,5,8,10 and 12 measured on day 15. It counts as functional, organism-based.
For data set [10], the system named is HCT-116. Nature of the data set: Antitumor activity against human HCT116 cells xenografted in athymic nude BALB/cAJcL mouse assessed as inhibition of tumor growth at 75 mg/kg, iv administered on days 1,3,5,8,10 and 12 measured on day 15. The format is functional.
For data set [11], the system named is Mus musculus. Kind of data set: Toxicity in athymic nude BALB/cAJcL mouse xenografted with HCT116 cells assessed as mortality at 150 mg/kg, iv administered on days 1,3,5,8,10 and 12. The format is organism-based, HCT-116. The following applies: in vivo.
Data set [12] relates to HeLa. Nature of the data set: Cell cycle arrest at mitotic phase in human HeLa cells assessed as formation of monopolar spindles at 40 nM after 6 hrs by DAPI staining-based microscopic analysis. It counts as functional.
Data set [13] has as its system HCT-116. Kind of data set: Antitumor activity against human HCT116 cells xenografted in athymic nude BALB/cAJcL mouse assessed as inhibition of tumor growth at 10 mg/kg, iv administered on days 1,3,5,8,10 and 12 measured on day 15. The format is functional.
The subject of data set [14] is HeLa. Kind of data set: Cell cycle arrest at mitotic phase in human HeLa cells assessed as mitotic index after 6 hrs. It counts as functional.
For data set [15], the system named is Mus musculus. Kind of data set: Toxicity in athymic nude BALB/cAJcL mouse xenografted with HCT116 cells assessed as mortality at 10 mg/kg, iv administered on days 1,3,5,8,10 and 12. The format is organism-based, HCT-116. As to conditions: in vivo.

Calls of active or inactive are those of the source. The rule behind the calls is not given here. Where only a bound is given, the exact number is not on record here.

Regarding `N[C@@H](CSC1(c2cccc(C(F)(F)F)c2)c2ccccc2CCc2ccccc21)C(=O)O`, the IC50 – broadly, the concentration at which inhibition is half-maximal – came out at 123 nM in data set [1] and 238 nM in data set [2].
In the case of `N[C@@H](CSC1(c2ccc(C(F)(F)F)cc2)c2ccccc2Oc2ccccc21)C(=O)O`, the half-inhibitory concentration (IC50) is > 10000 nM in data set [1] and > 20000 nM in [2].
In data set [1], `Cc1ccc(C(=O)N(CCCN)[C@@H](c2nc3cc(Cl)ccc3c(=O)n2Cc2ccccc2)C(C)C)cc1` [ISPINESIB] showed an IC50 of 1.1 nM.
As to `N[C@@H](CSC1(c2ccc(-c3ccccc3)cc2)c2ccccc2CCc2ccccc21)C(=O)O`, the IC50 in data set [1] was determined as 1300 nM; in data set [2], 1060 nM.
`Cc1ccc(C2(SC[C@H](N)C(=O)O)c3ccccc3C=Cc3ccccc32)cc1`: the results for the IC50 in data set [1] and in data set [2] were 3.4 nM and 14 nM, respectively.
For `CON(C)C(=O)N1N=C(c2cc(F)ccc2F)S[C@@]1(CCCN)c1ccccc1` [FILANESIB], in that order: 0.7 nM and 18 nM.
As to `N[C@@H](CSC1(c2ccc(C(F)(F)F)cc2)c2ccccc2Sc2ccccc21)C(=O)O`, the results for the IC50 in data set [1] and in data set [2] were > 10000 nM and > 20000 nM, respectively.
As for `N[C@@H](CSC1(c2ccc(Cl)cc2)c2ccccc2CCc2ccccc21)C(=O)O`, the results for the Activity result in [3] and in data set [4] were “Non-toxic” and “Toxic”, respectively. The IC50 in [1] was 41 nM; in data set [2], 11 nM. In addition, in [5], the T/C (in general, the ratio of treated to control) is 11%.
With `COc1ccc(C(SC[C@H](N)C(=O)O)(c2ccccc2)c2ccccc2)cc1`, the ΔTm (commonly the change in melting temperature against a reference sample) in data set [6] turned out to be 9 °C. This compound gave an IC50 in data set [1] of 213 nM.
Take `N[C@@H](CSC1(c2ccc(Cl)cc2)c2ccccc2C=Cc2ccccc21)C(=O)O`: the IC50 in data set [1] worked out at 3.9 nM; in [2] it was 12 nM.
For `CC(C)(C)c1ccc(C2(SC[C@H](N)C(=O)O)c3ccccc3CCc3ccccc32)cc1`, in that order: 234 nM and 301 nM.
For the compound `Cc1ccccc1C1(SC[C@H](N)C(=O)O)c2ccccc2CCc2ccccc21`, the IC50 is 4590 nM in data set [1] and 7800 nM in data set [2].
Consider `Cc1ccc(C2(SC[C@H](N)C(=O)O)c3ccccc3CCc3ccccc32)cc1`, for which the Activity entry in data set [3] is listed as “Non-toxic”. For the same compound, the values for the IC50 in [1] and in data set [2] were 25 nM and 9.3 nM, respectively. Besides, the T/C in data set [5] came to 19%.
In the case of `N[C@@H](CSC1(c2ccccc2)c2ccccc2CCSc2ccccc21)C(=O)O` (mixture of isomers), the IC50 in data set [1] was > 10000 nM; in data set [2], > 20000 nM.
Consider `N[C@@H](CSC1(c2ccccc2)c2ccccc2CCc2ccccc21)C(=O)O`, for which the Activity entry in [7] is “Non-toxic”; in data set [3] it was “Non-toxic”; in [4], “Toxic”; in data set [11], “Non-toxic”. Besides, the T/C was determined as 23% in data set [8], 43% in data set [10] and 62% in data set [5]. Besides, the ΔTm in data set [6] came out at 8 °C. Also, the TGI entry in data set [9] was “Dose-dependent effect”. The results for the IC50 in [1] and in [2] were 325 nM and 209 nM, respectively.
Take `N[C@@H](CSC(c1ccccc1)(c1ccccc1)c1ccc(C(F)(F)F)cc1)C(=O)O`: the IC50 in data set [1] is 216 nM; in data set [2], 262 nM.
As for `N[C@@H](CSC1(c2ccc(Oc3ccccc3)cc2)c2ccccc2CCc2ccccc21)C(=O)O`, the IC50 in [1] was 291 nM; in data set [2], 306 nM.
`N[C@@H](CSC(c1ccccc1)(c1ccccc1)c1ccccc1)C(=O)O` [S-TRITYL-L-CYSTEINE]: in data set [1], the 50% inhibitory concentration (IC50) turned out to be 910 nM.
Regarding `N[C@@H](CSC1(c2ccc(C(F)(F)F)cc2)c2ccccc2COc2ccccc21)C(=O)O` (mixture of isomers), the IC50 in [1] worked out at 76 nM; in [2] it was 75 nM.
With `N[C@@H](CSC1(c2ccc(C(F)(F)F)cc2)c2ccccc2C=Cc2ccccc21)C(=O)O`, the outcome in data set [12] was Active. The T/C in [13] is 31%; in data set [5], 12%. Also, the Activity entry in [3] and in [15] was “Non-toxic” throughout. In addition, in [9], the TGI result was “Dose-dependent effect”. For the same compound, the IC50 in [1] was determined as 5 nM; in [2], 36 nM. Moreover, the MI50 in data set [14] is reported as 12 nM.
Regarding `COc1ccc(C2(SC[C@H](N)C(=O)O)c3ccccc3C=Cc3ccccc32)cc1`, the ΔTm in [6] stood at 12.5 °C. The IC50 was found to be 2.6 nM in data set [1] and 8.6 nM in data set [2].
As for `N[C@@H](CSC1(c2ccc(C(F)(F)F)cc2)c2ccccc2CSc2ccccc21)C(=O)O` (mixture of isomers), the IC50 came to 15 nM in data set [1] and 61 nM in [2].
With `N[C@@H](CSC1(c2cccc(Cl)c2)c2ccccc2CCc2ccccc21)C(=O)O`, the concentration for half-maximal inhibition (IC50) in [1] came to 637 nM; in [2], 160 nM.
The like results for `N[C@@H](CSC1(c2ccc(-c3ccccc3)cc2)c2ccccc2C=Cc2ccccc21)C(=O)O` were, in that order, 395 nM and 1400 nM.

The record behind these values is ChEMBL document CHEMBL3632570, “Structure-Guided Design of Novel l-Cysteine Derivatives as Potent KSP Inhibitors” (ACS Med Chem Lett, 2015).
